Reference: PubChem BioAssay AID220 (DTP/NCI, 2004)
Several values for one entry are separate records, joined by “and”; a condition that tells them apart may be missing. Equal entries are not always repeated. Inconclusive results are not listed.

Test system: CD8F1 mice, subcutaneous mammary adenocarcinoma, T/C%
Experiment: NCI In Vivo Anticancer Drug Screen. Data for tumor model Mammary Adenocarcinoma CD8F1 (subcutaneous) in CD8F1
Details: higher = larger tumour
In short: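 Mice carrying transplanted tumors received test compound, and survival or tumor size was recorded. Each value is the treated-group measurement divided by the corresponding measurement in vehicle-dosed controls.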

[1] = endpoint: median tumor weight change, dose: 125.0 mg/kg/injection, schedule: Q01DX001 (ip), vehicle: saline with Tween-80
[2] = endpoint: median tumor weight change, dose: 250.0 mg/kg/injection, schedule: Q01DX001 (ip), vehicle: saline with Tween-80
[3] = endpoint: median tumor weight change, dose: 500.0 mg/kg/injection, schedule: Q01DX001 (ip), vehicle: saline with Tween-80
[4] = endpoint: median tumor weight (est.), dose: 6.25 mg/kg/injection, schedule: Q07DX005 (ip), vehicle: saline
[5] = endpoint: median tumor weight (est.), dose: 12.5 mg/kg/injection, schedule: Q07DX005 (ip), vehicle: saline
[6] = endpoint: median tumor weight (est.), dose: 50.0 mg/kg/injection, schedule: Q07DX005 (ip), vehicle: saline
[7] = endpoint: median tumor weight (est.), dose: 400.0 mg/kg/injection, schedule: Q07DX005 (ip), vehicle: saline

## Nc1ccc2ccc(NS(=O)(=O)N3CCCCC3)cc2c1
[1]
  T/C: 66 % of control
[2]
  T/C: 73 % of control
[3]
  T/C: 87 % of control
endpoint: median tumor weight change, dose: 1000.0 mg/kg/injection, schedule: Q01DX001 (ip), vehicle: saline with Tween-80
  T/C: 31 % of control

## Cc1c2c(ccc3ccccc32)c[n+]2ccccc12
[4]
  T/C: 73 % of control
[5]
  T/C: 71 % of control

## C[C@]12CC[C@@H]3c4ccc(OC(=O)Cc5ccc(N(CCCl)CCCl)cc5)cc4CC[C@H]3[C@@H]1CC[C@@H]2OC(=O)Cc1ccc(N(CCCl)CCCl)cc1
endpoint: mean tumor weight, dose: 25.0 mg/kg/injection, schedule: Q07DX005 (ip), vehicle: saline with Tween-80
  T/C: 54 % of control
endpoint: mean tumor weight, dose: 50.0 mg/kg/injection, schedule: Q07DX005 (ip), vehicle: saline with Tween-80
  T/C: 47 % of control
endpoint: mean tumor weight, dose: 100.0 mg/kg/injection, schedule: Q07DX005 (ip), vehicle: saline with Tween-80
  T/C: 45 % of control
endpoint: mean tumor weight, dose: 200.0 mg/kg/injection, schedule: Q07DX005 (ip), vehicle: saline with Tween-80
  T/C: 38 % of control
endpoint: mean tumor weight, dose: 400.0 mg/kg/injection, schedule: Q07DX005 (ip), vehicle: saline with Tween-80
  T/C: 65 % of control
endpoint: median tumor weight (est.), dose: 25.0 mg/kg/injection, schedule: Q07DX005 (ip), vehicle: saline with Tween-80
  T/C: 79 % of control and 93 % of control
endpoint: median tumor weight (est.), dose: 50.0 mg/kg/injection, schedule: Q07DX005 (ip), vehicle: saline with Tween-80
  T/C: 45 % of control and 51 % of control
endpoint: median tumor weight (est.), dose: 400.0 mg/kg/injection, schedule: Q07DX005 (ip), vehicle: saline with Tween-80
  T/C: 10 % of control

## CCC(C)C(=O)OC1C(=O)OC2CC3C(C)=CC(=O)C(O)C3(C)C3C4(O)OCC23C1C(C)C4O (centres undefined)
endpoint: median tumor weight (est.), dose: 0.5 mg/kg/injection, schedule: Q07DX005 (ip), vehicle: saline
  T/C: 70 % of control
endpoint: median tumor weight (est.), dose: 1.0 mg/kg/injection, schedule: Q07DX005 (ip), vehicle: saline with Tween-80
  T/C: 237 % of control
endpoint: median tumor weight (est.), dose: 1.0 mg/kg/injection, schedule: Q07DX005 (ip), vehicle: saline
  T/C: 95 % of control
endpoint: median tumor weight (est.), dose: 2.0 mg/kg/injection, schedule: Q07DX005 (ip), vehicle: saline
  T/C: 70 % of control
endpoint: median tumor weight (est.), dose: 4.0 mg/kg/injection, schedule: Q07DX005 (ip), vehicle: saline with Tween-80
  T/C: 165 % of control
endpoint: median tumor weight (est.), dose: 4.0 mg/kg/injection, schedule: Q07DX005 (ip), vehicle: saline
  T/C: 74 % of control

## OCC1OC(n2cnc3c2nnn2ccnc32)C(O)C1O (centres undefined)
endpoint: mean tumor weight, dose: 37.5 mg/kg/injection, schedule: Q07DX005 (ip), vehicle: saline
  T/C: 93 % of control and 94 % of control
endpoint: mean tumor weight, dose: 75.0 mg/kg/injection, schedule: Q07DX005 (ip), vehicle: saline
  T/C: 202 % of control and 91 % of control
endpoint: mean tumor weight, dose: 150.0 mg/kg/injection, schedule: Q07DX005 (ip), vehicle: saline
  T/C: 103 % of control and 118 % of control

## COC1C=CC23c4cc5c(cc4C(O)OC2CN(C)C3C1)OCO5 (centres undefined)
endpoint: median tumor weight (est.), dose: 18.75 mg/kg/injection, schedule: Q07DX005 (ip), vehicle: saline
  T/C: 154 % of control
endpoint: median tumor weight (est.), dose: 37.5 mg/kg/injection, schedule: Q07DX005 (ip), vehicle: saline
  T/C: 205 % of control
endpoint: median tumor weight (est.), dose: 75.0 mg/kg/injection, schedule: Q07DX005 (ip), vehicle: saline
  T/C: 88 % of control
endpoint: median tumor weight (est.), dose: 150.0 mg/kg/injection, schedule: Q07DX005 (ip), vehicle: saline
  T/C: 120 % of control

## CCCCCC#CC1OC12CCCCC2 (centres undefined)
endpoint: median tumor weight change, dose: 100.0 mg/kg/injection, schedule: Q01DX001 (ip), vehicle: saline with Tween-80
  T/C: 37 % of control
endpoint: median tumor weight change, dose: 200.0 mg/kg/injection, schedule: Q01DX001 (ip), vehicle: saline with Tween-80
  T/C: 106 % of control
endpoint: median tumor weight change, dose: 400.0 mg/kg/injection, schedule: Q01DX001 (ip), vehicle: saline with Tween-80
  T/C: 51 % of control
endpoint: median tumor weight change, dose: 800.0 mg/kg/injection, schedule: Q01DX001 (ip), vehicle: saline with Tween-80
  T/C: 100 % of control

## COc1ccc([C@@]23Oc4cc(OC)cc(OC)c4[C@]2(O)[C@H](O)[C@H](C(=O)N(C)C)[C@H]3c2ccccc2)cc1
endpoint: median tumor weight change, dose: 2.5 mg/kg/injection, schedule: Q01DX001 (ip), vehicle: Klucel (hydroxypropylcellulose) (HPC)
  T/C: 212 % of control
endpoint: median tumor weight change, dose: 5.0 mg/kg/injection, schedule: Q01DX001 (ip), vehicle: Klucel (hydroxypropylcellulose) (HPC)
  T/C: 105 % of control
endpoint: median tumor weight change, dose: 10.0 mg/kg/injection, schedule: Q01DX001 (ip), vehicle: Klucel (hydroxypropylcellulose) (HPC)
  T/C: 72 % of control

## CCN=C=NCCCN(C)C
endpoint: median tumor weight change, dose: 3.9 mg/kg/injection, schedule: Q01DX001 (ip), vehicle: saline
  T/C: 115 % of control
endpoint: median tumor weight change, dose: 7.81 mg/kg/injection, schedule: Q01DX001 (ip), vehicle: saline
  T/C: 112 % of control
endpoint: median tumor weight change, dose: 15.63 mg/kg/injection, schedule: Q01DX001 (ip), vehicle: saline
  T/C: 92 % of control
endpoint: median tumor weight change, dose: 31.25 mg/kg/injection, schedule: Q01DX001 (ip), vehicle: saline
  T/C: 109 % of control
endpoint: median tumor weight change, dose: 62.5 mg/kg/injection, schedule: Q01DX001 (ip), vehicle: saline
  T/C: 67 % of control

## O=NN(CCCl)C(=O)NC1OC(CO)C(O)C(O)C1O (centres undefined)
endpoint: median tumor weight (est.), dose: 1.25 mg/kg/injection, schedule: Q07DX005 (ip), vehicle: saline
  T/C: 113 % of control
endpoint: median tumor weight (est.), dose: 2.5 mg/kg/injection, schedule: Q07DX005 (ip), vehicle: saline
  T/C: 91 % of control
endpoint: median tumor weight (est.), dose: 5.0 mg/kg/injection, schedule: Q07DX005 (ip), vehicle: saline
  T/C: 106 % of control
endpoint: median tumor weight (est.), dose: 10.0 mg/kg/injection, schedule: Q07DX005 (ip), vehicle: saline
  T/C: 29 % of control

## COP12(OCCO1)SC(C(F)(F)F)=C(C(F)(F)F)S2
endpoint: median tumor weight (est.), dose: 25.0 mg/kg/injection, schedule: Q07DX005 (ip), vehicle: saline
  T/C: 210 % of control
[6]
  T/C: 183 % of control
endpoint: median tumor weight (est.), dose: 100.0 mg/kg/injection, schedule: Q07DX005 (ip), vehicle: saline
  T/C: 351 % of control
endpoint: median tumor weight (est.), dose: 200.0 mg/kg/injection, schedule: Q07DX005 (ip), vehicle: saline
  T/C: 159 % of control
[7]
  T/C: 72 % of control

## CC[C@](C)(O)C(=O)O[C@H]1C(=O)O[C@@H]2C[C@H]3C(C)=CC(=O)[C@@H](O)[C@]3(C)[C@H]3[C@@]4(O)OC[C@]32[C@@H]1[C@@H](C)[C@H]4O
endpoint: median tumor weight (est.), dose: 0.06 mg/kg/injection, schedule: Q07DX005 (ip), vehicle: Klucel (hydroxypropylcellulose) (HPC)
  T/C: 116 % of control
endpoint: median tumor weight (est.), dose: 0.12 mg/kg/injection, schedule: Q07DX005 (ip), vehicle: Klucel (hydroxypropylcellulose) (HPC)
  T/C: 108 % of control
endpoint: median tumor weight (est.), dose: 0.5 mg/kg/injection, schedule: Q07DX005 (ip), vehicle: Klucel (hydroxypropylcellulose) (HPC)
  T/C: 73 % of control
endpoint: median tumor weight change, dose: 1.0 mg/kg/injection, schedule: Q01DX001 (ip), vehicle: Klucel (hydroxypropylcellulose) (HPC)
  T/C: 79 % of control

## C[n+]1c2cc(N)ccc2cc2ccc(N)cc21
[4]
  T/C: 104 % of control
[5]
  T/C: 211 % of control

## O=C(O)[C@H](Cc1ccccc1)N1C(=O)c2ccccc2C1=O
endpoint: median tumor weight change, dose: 62.5 mg/kg/injection, schedule: Q01DX001 (ip), vehicle: DMSO
  T/C: 75 % of control
endpoint: median tumor weight change, dose: 125.0 mg/kg/injection, schedule: Q01DX001 (ip), vehicle: DMSO
  T/C: 116 % of control
endpoint: median tumor weight change, dose: 250.0 mg/kg/injection, schedule: Q01DX001 (ip), vehicle: DMSO
  T/C: 68 % of control
endpoint: median tumor weight change, dose: 500.0 mg/kg/injection, schedule: Q01DX001 (ip), vehicle: DMSO
  T/C: 59 % of control

## C1OCN2CSCC12 (centres undefined)
[1]
  T/C: 90 % of control
[2]
  T/C: 71 % of control
[3]
  T/C: 82 % of control

## CN(C)[C@@H]1C(=O)C(C(N)=O)=C(O)[C@@]2(O)C(=O)C3=C(O)c4c(O)ccc(Cl)c4[C@@](C)(O)[C@H]3C[C@@H]12
endpoint: median tumor weight change, dose: 31.25 mg/kg/injection, schedule: Q01DX001 (ip), vehicle: suspension in saline
  T/C: 86 % of control
endpoint: median tumor weight change, dose: 62.5 mg/kg/injection, schedule: Q01DX001 (ip), vehicle: suspension in saline
  T/C: 104 % of control
endpoint: median tumor weight change, dose: 125.0 mg/kg/injection, schedule: Q01DX001 (ip), vehicle: suspension in saline
  T/C: 84 % of control
endpoint: median tumor weight change, dose: 250.0 mg/kg/injection, schedule: Q01DX001 (ip), vehicle: suspension in saline
  T/C: 83 % of control

## O=C(NO)c1cc(O)c(O)c(O)c1
endpoint: median tumor weight change, dose: 300.0 mg/kg/injection, schedule: Q01DX001 (ip), vehicle: water
  T/C: 124 % of control
endpoint: median tumor weight change, dose: 600.0 mg/kg/injection, schedule: Q01DX001 (ip), vehicle: water
  T/C: 78 % of control

## O=C(O)O
[6]
  T/C: 104 % of control
[7]
  T/C: 72 % of control and 55 % of control
